These are literature values, as cited in patent publication US6689338B2, “Bioconjugates of nanoparticles as radiopharmaceuticals” (The Board of Regents for Oklahoma State University, priority 2000, dated 2004).

This series has as its system tumor. The settings on record: in vivo.

Take `O=C([O-])CN(CCN(CC(=O)[O-])CC(=O)[O-])CCN(CC(=O)[O-])CC(=O)[O-].[111In+3].[H+].[H+]`: the liver background entry is “high liver background”.
